# Where two headings read alike, the source gives them in different places. Residues, ends and D or L forms follow the SMILES beside them.
# Experiments:
# [1] = system: E. coli; assay: microbe, parasite or virus in culture
# Method: (§1) Antimicrobial activity of arenicin-3 and its analogs was tested against a panel of bacterial and yeast strains by in vitro broth microdilution (BMD) assay with minimum inhibitory concentration (MIC) determination. Strains were purchased from American Type Culture Collection (ATCC) or obtained from clinical collaborators (full strain profiles provided in Supplementary Data 3). All peptides were prepared in Ringer’s acetate solution, and subsequently diluted fresh in water for each independent assay.
# (§2) Assays were performed in Mueller Hinton broth (MHB; BD, Cat. No. 211443) for bacteria, and yeast extract-peptone dextrose (YPD; Sigma-Aldrich, Y1500) for yeast. The concentrations of the peptides and comparator antibiotics/antifungals in the assay wells ranged from either 128 or 64 μg mL^−1, to 0.06 or 0.03 μg mL^−1 as a 12-point dose response plated as a 2-fold dilution series across the wells of the plate in duplicate for each independent biological replicate, using a final cell density of 5 × 10^5 CFU mL^−1 and 2.5 × 10^3 CFU mL^−1 for bacteria and yeast respectively. Final assay volumes were 100 μL per well with MICs determined visually following 18-20 h incubation at 37 °C for bacteria, 24 h incubation at 35 °C for Candida albicans, and 24 h incubation at 35 °C with resazurin addition (0.006%; Sigma-Aldrich, Cat # R7017) for a further 3 h for Cryptococcus neoformans, without shaking. Additional bacterial and yeast susceptibility assays were performed in Cation-Adjusted Mueller Hinton Broth (CAMHB; BD, Cat No. 212322) and Roswell Park Memorial Institute (RPMI) 1640 culture medium (Life Technologies Australia, Cat No. 21870092), respectively, as recommended by CLSI guidelines (M07 11th ed[36] and M27 4th ed[37]). […] Agarose MICs were determined in MHB with 1% agarose (Bioline molecular grade; Cat no: BIO-41025; high purity, high gel strength). All experiments were performed a minimum of six replicates (n ≥ 6).
# [2] = system: K. pneumoniae; assay: microbe, parasite or virus in culture
# Method: as §1, §2
# [3] = system: P. aeruginosa; assay: microbe, parasite or virus in culture
# Method: as §1, §2
# [4] = system: A. baumannii; assay: microbe, parasite or virus in culture
# Method: as §1, §2
# [5] = system: S. aureus; assay: microbe, parasite or virus in culture
# Method: as §1, §2
# [6] = system: human erythrocytes (HRBC); assay type: cell-based
# [7] = system: HK-2 human kidney proximal tubule cells; assay: in vitro
# Method: (§3) HEK-293 human embryonic kidney cells (ATCC CRL-1573), HepG2 liver hepatocellular carcinoma cells (ATCC HB-8065), and HK-2 human kidney proximal tubule cells (ATCC CRL-2190) cell lines were purchased from ATCC. Cytotoxicity of arenicin-3 variants was determined using the Alamar Blue (resazurin; Sigma-Aldrich, Cat # R7017), with 1% FBS for HK-2 and 10% FBS for HEK-293, and HepG2[40]. Cells were seeded as 2000 cells per well in black wall clear bottom 384-well plates (Corning®, Costar®, Cat # 3712). The cells were incubated for 24 h at 37 °C, 5% CO2. Then peptides were added into each cell containing well. After 24 h incubation, 5 μM resazurin were added per well and incubated at 37 °C for 2 h. Then the fluorescence intensity (FI) was read using a Polarstar® Omega plate reader with excitation/emission 560/590 and CC50 values were determined using Prism 8 following curve fitting and applying the following equation: Percentageviability = (FITEST-FINegative/FIUNTREATED-FINegative)×100.
# (§4) Hemolytic activity was measured against isolated human erythrocytes from anonymously donated fresh human blood. Isolated erythrocytes were adjusted to 1 × 10^9 blood cells mL^−1 in phosphate-buffered saline (PBS, pH 7.4), added to the wells of NUNC polypropylene round-bottom 96-well plates (Sigma-Aldrich, Cat # P6866) then up to 300 μg mL^−1 of compound was added per well and incubated for 3 h at 37 °C. Following incubation, samples were centrifuged at 3000 rpm for 20 min, and the supernatants, 100 μL, were carefully collected for measurement. The degree of hemolysis in the samples was determined by measurement of the absorption of the supernatants at 540 nm using the Polarstar-Omega plate reader. 1% Triton-X100 was used as positive control for inducing 100% hemolysis. HC10 and HC50 values were determined using Prism 8 following curve fitting. The use of human blood (sourced from the Australian Red Cross Blood Service) for hemolysis assays was approved by the University of Queensland Institutional Human Research Ethics Committee, Approval Number 2014000031. All in vitro toxicity assays were performed for two independent biological replicates as an 8-point dose response of 3-fold dilution series in triplicate with the highest test concentration of 300 μg mL^−1.
# [8] = system: HEK-293 human embryonic kidney cells; assay: in vitro
# Method: as §3, §4
# [9] = system: HepG2 liver hepatocellular carcinoma cells; assay: in vitro
# Method: as §3, §4
# [10] = in vitro; settings: human
# Method: as §3, §4
# [11] = system: C. albicans; assay: microbe, parasite or virus in culture; settings: 24 h
# Method: as §1, §2
# [12] = system: E. coli ATCC 25922; assay: microbe, parasite or virus in culture; assay type: cell-based, Escherichia coli; settings: ATCC 25922
# Method: Assays were performed in Mueller Hinton broth (MHB; BD, Cat. No. 211443) for bacteria, and yeast extract-peptone dextrose (YPD; Sigma-Aldrich, Y1500) for yeast. The concentrations of the peptides and comparator antibiotics/antifungals in the assay wells ranged from either 128 or 64 μg mL^−1, to 0.06 or 0.03 μg mL^−1 as a 12-point dose response plated as a 2-fold dilution series across the wells of the plate in duplicate for each independent biological replicate, using a final cell density of 5 × 10^5 CFU mL^−1 and 2.5 × 10^3 CFU mL^−1 for bacteria and yeast respectively. Final assay volumes were 100 μL per well with MICs determined visually following 18-20 h incubation at 37 °C for bacteria, 24 h incubation at 35 °C for Candida albicans, and 24 h incubation at 35 °C with resazurin addition (0.006%; Sigma-Aldrich, Cat # R7017) for a further 3 h for Cryptococcus neoformans, without shaking. Additional bacterial and yeast susceptibility assays were performed in Cation-Adjusted Mueller Hinton Broth (CAMHB; BD, Cat No. 212322) and Roswell Park Memorial Institute (RPMI) 1640 culture medium (Life Technologies Australia, Cat No. 21870092), respectively, as recommended by CLSI guidelines (M07 11th ed[36] and M27 4th ed[37]). […] However, for yeast it was determined that the YPD media was more reliable and robust between repeats and therefore MICs in this media are reported. […] Agarose MICs were determined in MHB with 1% agarose (Bioline molecular grade; Cat no: BIO-41025; high purity, high gel strength). All experiments were performed a minimum of six replicates (n ≥ 6).
# [13] = E. coli ATCC 25922 FDA control strain, MHB, mode of 6 independent biological replicates
# [14] = K. pneumoniae ATCC 13883 type strain (polymyxin/colistin heteroresistant), MHB, mode of 6 replicates
# [15] = P. aeruginosa ATCC 27853 control strain, MHB, mode of 6 replicates
# [16] = A. baumannii ATCC 19636 type strain, MHB, mode of 6 replicates
# [17] = S. aureus ATCC 25923 MSSA, MHB, mode of 6 replicates
Compound,"BMD MIC [1, 13] [µg/mL]","BMD MIC [2, 14] [µg/mL]","BMD MIC [3, 15] [µg/mL]","BMD MIC [4, 16] [µg/mL]","BMD MIC [5, 17] [µg/mL]","Heamolysis HC10, Mean [6] [µg/mL]",CC50 HK2 [7] [µg/mL],"CC50 HK2, Mean [7] [µg/mL]","CC50 HEK293, Mean [8] [µg/mL]",CC50 HepG2 [9] [µg/mL],"CC50 HepG2, Mean [9] [µg/mL]",CC50 at 24 h ([10]; HEK-293 cells) [µg/mL],CC50 at 24 h ([10]; HK-2 cells) [µg/mL],CC50 at 24 h ([10]; HepG2 cells) [µg/mL],BMD MIC [2] [µg/mL],BMD MIC [3] [µg/mL],BMD MIC [4] [µg/mL],BMD MIC [5] [µg/mL],BMD MIC [11] [µg/mL],also measured
"CC(C)[C@@H]1NC(=O)[C@H](Cc2ccc(O)cc2)NC(=O)[C@H](Cc2c[nH]c3ccccc23)NC(=O)[C@@H](NC(=O)[C@H](Cc2ccccc2)NC(=O)CN)CSSC[C@@H](C(N)=O)NC(=O)[C@H](CCCNC(=N)N)NC(=O)[C@H](CCCNC(=N)N)NC(=O)[C@H](Cc2ccc(O)cc2)NC(=O)[C@@H]2CSSC[C@H](NC1=O)C(=O)N[C@@H](C)C(=O)N[C@@H](CCCNC(=N)N)C(=O)N[C@@H](CCCNC(=N)N)C(=O)N[C@@H](CC(N)=O)C(=O)NCC(=O)N[C@@H](C)C(=O)N[C@@H](CCCNC(=N)N)C(=O)N[C@@H](C(C)C)C(=O)N2 [AB0017] (HELM PEPTIDE1{G.F.C.W.Y.V.C.A.R.R.N.G.A.R.V.C.Y.R.R.C.[am]}$PEPTIDE1,PEPTIDE1,3:R3-20:R3|PEPTIDE1,PEPTIDE1,7:R3-16:R3$$$V2.0)",0.5,0.125,0.25,1,64,–,–,–,–,–,–,–,–,–,–,–,–,–,–,–
"CC(C)C[C@@H]1NC(=O)CNC(=O)[C@H](CC(N)=O)NC(=O)[C@H](CCCNC(=N)N)NC(=O)[C@H](CCCCN)NC(=O)[C@H](C)NC(=O)[C@@H]2CSSC[C@H](NC(=O)[C@H](C(C)C)NC(=O)[C@H](CCCNC(=N)N)NC1=O)C(=O)N[C@@H](Cc1ccc(O)cc1)C(=O)N[C@@H](CCCNC(=N)N)C(=O)N[C@@H](CCCNC(=N)N)C(=O)N[C@H](C(=O)N[C@@H](CC(N)=O)C(=O)O)CSSC[C@H](NC(=O)[C@H](Cc1ccccc1)NC(=O)CN)C(=O)N[C@@H](Cc1c[nH]c3ccccc13)C(=O)N[C@@H](Cc1ccc(O)cc1)C(=O)N[C@@H](C)C(=O)N2 [NZ17126] (HELM PEPTIDE1{G.F.C.W.Y.A.C.A.K.R.N.G.L.R.V.C.Y.R.R.C.N}$PEPTIDE1,PEPTIDE1,3:R3-20:R3|PEPTIDE1,PEPTIDE1,7:R3-16:R3$$$V2.0)",–,–,–,–,–,232,>254,>250,>300,>300,>300,> 300,> 250,> 300,0.25,0.25,1,32,>64,CC50 HEK293 [8]: >300 µg/mL; BMD MIC [1]: 0.125 µg/mL
"CC(C)[C@@H]1NC(=O)[C@H](Cc2ccc(O)cc2)NC(=O)[C@H](Cc2c[nH]c3ccccc23)NC(=O)[C@@H](NC(=O)CN)CSSC[C@@H](C(=O)N[C@@H](CC(N)=O)C(=O)O)NC(=O)[C@H](CCCNC(=N)N)NC(=O)[C@H](CCCNC(=N)N)NC(=O)[C@H](Cc2ccc(O)cc2)NC(=O)[C@@H]2CSSC[C@H](NC1=O)C(=O)N[C@@H](C)C(=O)N[C@@H](CCCNC(=N)N)C(=O)N[C@@H](CCCNC(=N)N)C(=O)N[C@@H](CC(N)=O)C(=O)NCC(=O)N[C@@H](C)C(=O)N[C@@H](CCCNC(=N)N)C(=O)N[C@@H](C(C)C)C(=O)N2 [AB0016] (HELM PEPTIDE1{G.C.W.Y.V.C.A.R.R.N.G.A.R.V.C.Y.R.R.C.N}$PEPTIDE1,PEPTIDE1,2:R3-19:R3|PEPTIDE1,PEPTIDE1,6:R3-15:R3$$$V2.0)",1,2,1,1,>64,–,–,–,–,–,–,–,–,–,–,–,–,–,–,–
"CC(C)[C@@H]1NC(=O)CNC(=O)[C@H](CC(N)=O)NC(=O)[C@H](CCCNC(=N)N)NC(=O)[C@H](Cc2ccc(O)cc2)NC(=O)[C@H](C(C)C)NC(=O)[C@@H]2CSSC[C@H](NC(=O)[C@H](C(C)C)NC(=O)[C@H](CCCNC(=N)N)NC1=O)C(=O)N[C@@H](Cc1ccc(O)cc1)C(=O)N[C@@H](CCCNC(=N)N)C(=O)N[C@@H](CCCNC(=N)N)C(=O)N[C@H](C(=O)N[C@@H](CC(N)=O)C(=O)O)CSSC[C@H](NC(=O)[C@H](Cc1ccccc1)NC(=O)CN)C(=O)N[C@@H](Cc1c[nH]c3ccccc13)C(=O)N[C@@H](CCCNC(=N)N)C(=O)N[C@@H](C)C(=O)N2 [NZ17230] (HELM PEPTIDE1{G.F.C.W.R.A.C.V.Y.R.N.G.V.R.V.C.Y.R.R.C.N}$PEPTIDE1,PEPTIDE1,3:R3-20:R3|PEPTIDE1,PEPTIDE1,7:R3-16:R3$$$V2.0)",–,–,–,–,–,>300,>258,>250,223,>300,>300,223,> 250,> 300,0.25,0.25,0.5,64,64,"Heamolysis HC10 ([6]; red cells of human, 3 h): >300 µg/mL; MIC, MHB [12]: 0.25 µg/mL"
